According to a melting point compilation (Tetko et al.; mined from patent text by program, amines drawn as free bases though some values may be those of a salt):

| SMILES | melting point [°C] |
| --- | --- |
| CC(C)/C=C(/C(=O)O)c1ccc(S(C)(=O)=O)cc1 | 179 to 182 |
| CC1C(=O)N(c2ccc(S(N)(=O)=O)cc2Cl)CN1c1ccccc1 (stereo not given) | 202 |
| O=C(/C=C/c1cccc(F)c1)N1CCN(C(=O)c2cc(C(F)(F)F)cc(C(F)(F)F)c2)[C@H](Cc2c[nH]c3ccccc23)C1 | 120 to 130 |
| Cc1cc(C(=O)NCc2cccc3c2C(=O)N(C2CCC(=O)NC2=O)C3=O)nn1C (stereo not given) | 213 to 215 |
| CCC1(Cc2ncn(C(c3ccccc3)(c3ccccc3)c3ccccc3)c2C)CCc2c(C)c3ccccc3n2C1=O (stereo not given) | 83 to 98 |
| CC(C)(C)NC(=O)C(C)(C)C | 116 to 118 |
| N#CC(=Cc1ccncc1)c1cccnc1 | 150 to 152 |
| COC(=O)CCc1cc2cc(Cl)ccc2n1S(=O)(=O)c1ccc(C(C)C)cc1 | 90 to 94 |
| Cc1cccc(N2CCN(Cc3c[nH]c4ncccc34)CC2)c1 | 156 to 158 |
| COC(=O)c1cc(-c2ccc(OC)c(OC)c2)nn(CC2CC2)c1=O | 136 to 137 |
| CC(=O)SCC(CC(C)C)C(=O)Nc1cccc(C(=O)O)c1 (stereo not given) | 184 to 186 |
| c1c[nH]c(C(c2ccc[nH]2)C23CC4CC(CC(C4)C2)C3)c1 | 168 to 169 |
| ClCc1ncc(-c2ccccc2)cc1Cl | 74 to 75 |
| CCC(C)(CC)C(=O)C=C(P(=O)(O)O)P(=O)(O)O | 146 to 147 |
| Cc1c(O)cc2c(c1C)N(C=O)C(C)C2 (stereo not given) | 155 to 159 |
| COC(=O)c1ccc(C(=O)Nc2c(C)c(C)c3c(c2C)C(c2ccc(C(C)C)cc2)C(C)(C)O3)cc1 (stereo not given) | 220 to 223 |
| CC(CCc1cc2cccnc2n(-c2cccc(N(C)C)c2)c1=O)c1ccncc1 (stereo not given) | 148 to 154 |
| CCSCCn1c(=N)sc2cc(C(F)(F)F)ccc21 | 50 |
| O=C1CN(c2cccc(Cl)c2)NC(=O)N1 | 224 to 226 |
| COc1ccccc1Nc1ccc2c(c1)OCc1cc(N)ccc1C2=O | 68.4 |

| SMILES | melting point [°C] |
| --- | --- |
| CS(=O)(=O)c1ccc(-c2cc(C(=O)O)sc2-c2ccc(F)cc2)cc1 | 264 |
| CCCN1C(=O)N(c2ccc([N+](=O)[O-])c(C(F)(F)F)c2)C(=O)C1(C)C | 102 |
| CCOCC(=O)Nc1nc2ccccc2s1 | 113 to 114 |
| COc1cc2[nH]c3ncnc(N4CCNCC4)c3c2cc1OC | 185 |
| Cc1ccc(NC(N)=S)c(O)c1 | 175 to 177 |
| COc1ccc(/C(=C\C=C\C(=O)O)c2ccccc2)cc1 | 184 to 185 |
| COCCNC(=O)c1cccc(-c2cccc3c(C)c(Cc4ccc(F)c(Cl)c4)sc23)c1 | 141 to 142 |
| COC(=O)C(Cl)=Cc1cc(-n2ncc(C(F)(F)F)c(C)c2=O)c(F)cc1Cl | 142 to 145 |
| CCCN(CCC)CCCC1CCN(CCNC(=O)N2c3cc(Cl)ccc3C(=O)Nc3cccnc32)CC1 | 174 to 175 |
| CCOC(=O)c1cn(-c2ncnn2C)c2cc(F)c(F)cc2c1=O | 230 to 231 |
| CCN(CC)CCn1nc2c3c(c(CN)ccc31)Sc1ccc(OC)cc1-2 | 74 to 76 |
| CN(c1cccc2cc(C3=NCC4(CCN(CC(N)=O)CC4)S3)[nH]c12)S(=O)(=O)c1cccs1 | 226 |
| CC12CCC(=O)NC1=CCc1cc(F)ccc12 (stereo not given) | 202 |
| CCC(CC)c1ccc(Cl)c2nc3n(c12)CCCCN3c1ccc(C)cc1Br | 152 to 155 |
| CCOC(=O)c1cn(CC)c2sc(C)cc2c1=O | 140 to 142 |
| O=c1c(-c2cccc(C(F)(F)F)c2)c[nH]n1-c1cccc(Cl)c1 | 182 to 184 |
| C[C@@H]1Cc2ccsc2[C@H](C)N1CCNC(=O)c1ccc(F)cc1 (relative stereo) | 110 to 114 |
| OC1C=CC2COC1O2 (stereo not given) | 65.6 to 66.4 |
| O=C(CCc1ccccc1)CS(=O)(=O)C(c1ccc(Cl)cc1)c1ccc(Cl)cc1 | 106 to 107 |
| COC(=S)CCc1cc(Oc2ccc(C(F)(F)F)cc2Cl)ccc1[N+](=O)[O-] | 61 to 63 |
